Laboratory results reported in patent US20110118269A1, “FUSED PYRAZINE COMPOUNDS AS THEIR SALTS, USEFUL FOR THE TREATMENT OF DEGENERATIVE AND INFLAMMATORY DISEASES” (priority 2009, published 2011).

Legend:
[1] = test system: MMP1 expression by synovial fibroblasts; test: 'MMP assay': complex trigger induced MMP1 expression by RASFs, compound testing; format: cell-based; details: Homo sapiens, Fibroblast, 48 hrs
Description: A 384-well format ELISA for measurement of MMP1 is developed. Various primary antibodies are tested, as well as various ELISA protocols. The following protocol is developed and validated to measure MMP1 levels in SF supernatant in 384 well plates: white Lumitrac 600 384 well plates (Greiner) are coated with 2 μg/mL anti-MMP1 antibody MAB1346 (Chemicon). The antibody is diluted in buffer 40 (1.21 g Tris base (Sigma), 0.58 g NaCl (Calbiochem) and 5 mL 10% NaN3 (Sigma) in 1 L milliQ water and adjusted to pH 8.5). After overnight incubation at 4° C., plates are washed with PBS (80 g NaCl, 2g KCl (Sigma), 11.5 g Na2HPO4.7H2O and 2 g KH2PO4 in 10 L milliQ; pH 7.4) and blocked with 100 μL/well Casein buffer (2% Casein (VWR International) in PBS). Next day, casein buffer is removed from ELISA plates and replaced by 50 μL/well EC buffer (4 g casein, 2.13 g Na2HPO4 (Sigma), 2 g bovine albumin (Sigma), 0.69 g NaH2PO4.H2O (Sigma), 0.5 g CHAPS (Roche), 23.3 g NaCl, 4 mL 0.5 M EDTA pH 8 (Invitrogen), 5 mL 10% NaN3 in 1 L milliQ and adjusted to pH 7.0). 0.25 mM DTT (Sigma) is added to the thawed samples plates. After removal of the EC buffer, 20 μL of sample is transferred to the ELISA plates. […] Readout is performed on the Luminoscan Ascent Luminometer (Labsystems) with an integration time of 200 msec or with an Envision reader (Perkin Elmer). […]

[2] = test system: Collagen-Induced Arthritis model; test: CIA model; format: in vivo, mouse; details: 3 or 30 mg/kg/d, daily for 14 days
Description: Complete Freund Adjuvant/Collagen II (CFA/Coll II, bovine) is injected (1 mg/mL, 100 μL per animal) into the tail (intradermic) at the start of the experiment. Incomplete Freund Adjuvant /Collagen II (IFA/Coll II) is injected into the tail at the same level (1 mg/mL, 100 μL per animal) 21 days after CFA/Coll II injection. Animals are then randomized based on score and assigned to treatment groups assuring an equal distribution of score in the different groups. Treatment with either the test compound (1 mg/kg/d, 3 mg/kg/d or 30 mg/kg/d), positive control (Enbrel, 10 mg/kg/3× week, ip) or vehicle (Methyl Cellulose, 1% DMSO) starts at day 8 post IFA/Coll II-boost (i.e. […] of the experiment). Animals are dosed daily with the test compound, positive control or vehicle for 14 days. The animals are scored daily for clinical symptoms, scoring is reported for the individual paws. During the treatment period the body weight of the animals is monitored. Bone protection is analysed by x-ray imaging.

TNF-α = test: Septic shock model (LPS induced TNF alpha release); format: in vivo, BALB/cJ female mice; details: 3, 10 and 20 mg/kg, po, once, 30 min before LPS
Description: Injection of lipopolysaccharide (LPS) induces a rapid release of soluble tumour necrosis factor (TNF-α) into the periphery. This model is used to analyse prospective blockers of TNF release in vivo.
Six BALB/cJ female mice (20 g) per group are treated at the intended dosing once, po. Thirty minutes later, LPS (15 mg/kg; E. coli serotype 0111:B4) is injected ip. Ninety minutes later, mice are euthanized and blood is collected. Circulating TNF alpha levels are determined using commercially available ELISA kits. Dexamethasone (5 mg/kg) is used as a reference anti-inflammatory compound. Compound 1 is efficacious at 3, 10 and 20 mg/kg, po.

In the case of `CC(C)N1C[C@@H]2C[C@H]1CN2c1ccc(Nc2ncc(-c3coc(C(N)=O)c3)n3ncnc23)cc1` [Compound 1, 4-{8-[4-((1S,4S)-5-Isopropyl-2,5-diaza-bicyclo[2.2.1]hept-2-yl)-phenylamino]-[1,2,4]triazolo[1,5-a]pyrazin-5-yl}-furan-2-carboxamide], the IC50 [1] is reported as 100 to 1000 nM, the “efficacy in CIA model” value [2] is reported as “efficacious” and the “efficacy in septic shock model (circulating TNF alpha levels)” value (TNF-α) is reported as “efficacious”.
